The results in this text go back to ChEMBL document CHEMBL3045690, “Ligand-based drug design studies using predictive pharmacophore model generation on 4H-1,2,4-triazoles as AT1 receptor antagonists” (Med Chem Res, 2012).

pIC50: −log10 of the molar value.

This assay has as its target T1, Type-1 angiotensin II receptor (Oryctolagus cuniculus, UniProt P34976).
T1 sequence (P34976 whole entry): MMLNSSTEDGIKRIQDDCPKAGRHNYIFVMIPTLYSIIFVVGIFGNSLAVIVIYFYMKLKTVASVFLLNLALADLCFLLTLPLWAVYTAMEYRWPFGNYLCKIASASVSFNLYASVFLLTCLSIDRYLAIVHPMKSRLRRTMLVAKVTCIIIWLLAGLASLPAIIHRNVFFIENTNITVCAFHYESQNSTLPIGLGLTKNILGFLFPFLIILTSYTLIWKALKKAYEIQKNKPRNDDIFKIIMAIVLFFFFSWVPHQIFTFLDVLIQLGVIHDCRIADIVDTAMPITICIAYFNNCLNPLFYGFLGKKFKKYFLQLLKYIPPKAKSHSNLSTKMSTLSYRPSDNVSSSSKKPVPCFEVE
As to the kind of experiment: Antagonist activity at AT1 receptor in Oryctolagus cuniculus (rabbit) aorta.
In general, pIC50 refers to −log10 of the IC50, conventionally taken in molar units. A low value points to a high IC50. Compound `CCCCc1nnc(S)n1Cc1ccc(NC(=O)c2ccccc2C(=O)O)cc1` had a pIC50 of 6.07.

Consider `CCCCc1nnc(SCc2ccccc2)n1Cc1ccc(NC(=O)c2ccccc2-c2nnn[nH]2)cc1`, for which the pIC50 is 8.15.

As to `CCCCc1nnc(SC(C)(C)C)n1Cc1ccc(NC(=O)c2ccccc2C(=O)O)cc1`, the pIC50 was 6.05.

As to `CCCCc1nnc([S+]([O-])Cc2ccc(Cl)cc2)n1Cc1ccc(NC(=O)c2ccccc2-c2nn[nH]n2)cc1` (stereo unspecified), the pIC50 is 7.96.

Take `CCCCc1nnc([S+]([O-])Cc2ccc([N+](=O)[O-])cc2)n1Cc1ccc(NC(=O)c2ccccc2-c2nnn[nH]2)cc1` (stereo unspecified): the pIC50 is 8.05.

Consider `CCCCc1nnc(SCc2ccccc2CO)n1Cc1ccc(NC(=O)c2ccccc2-c2nnn[nH]2)cc1`, for which the pIC50 is 7.44.

For the compound `CCCCc1nnc(SCc2cccc(OC)c2)n1Cc1ccc(NC(=O)c2ccccc2-c2nnn[nH]2)cc1`, the negative-log IC50 (pIC50) is 7.03.

Take `CCCCc1nnc([S+]([O-])Cc2ccccc2C(=O)O)n1Cc1ccc(NC(=O)c2ccccc2-c2nnn[nH]2)cc1` (stereo unspecified): the pIC50 is 8.00.

`CCCCc1nnc(NCc2ccc(OC)cc2)n1Cc1ccc(NC(=O)c2ccccc2-c2nnn[nH]2)cc1`: the pIC50 was 6.11.

As to `CCCCc1nnc(S(=O)(=O)Cc2ccc(Cl)cc2)n1Cc1ccc(NC(=O)c2ccccc2-c2nnn[nH]2)cc1`, the pIC50 was 7.32.

As for `CCCCc1nnc(SCc2ccccc2C(=O)OC)n1Cc1ccc(NC(=O)c2ccccc2-c2nnn[nH]2)cc1`, the pIC50 was 7.05.

For the compound `CCCCc1nnc(SCc2ccccc2C)n1Cc1ccc(NC(=O)c2ccccc2-c2nnn[nH]2)cc1`, the pIC50 is 7.77.

As for `CCCCc1nnc(NCc2ccc(Cl)cc2)n1Cc1ccc(NC(=O)c2ccccc2-c2nnn[nH]2)cc1`, the negative logarithm of the IC50 (pIC50) was 6.85.

As for `CCCCc1nnc(C(=O)NCc2ccccc2)n1Cc1ccc(NC(=O)c2ccccc2-c2nnn[nH]2)cc1`, the negative logarithm of the IC50 (pIC50) was 7.24.

As for `CCCCc1nnc(SCc2ccc(C(=O)OC)cc2)n1Cc1ccc(NC(=O)c2ccccc2-c2nnn[nH]2)cc1`, the pIC50 is 6.92.

As for `CCCCCc1nnc(SCc2ccc(Cl)cc2)n1Cc1ccc(NC(=O)c2ccccc2-c2nnn[nH]2)cc1`, the pIC50 was 7.03.

`CCCCc1nnc(SCc2ccc(C(=O)O)cc2)n1Cc1ccc(NC(=O)c2ccccc2-c2nnn[nH]2)cc1` gave a pIC50 of 7.62.

In the case of `CCCCc1nnc(SCc2ccccc2[N+](=O)[O-])n1Cc1ccc(NC(=O)c2ccccc2-c2nnn[nH]2)cc1`, the negative logarithm of the IC50 (pIC50) is 6.89.

In the case of `CCCCc1nnc(Sc2ccccc2)n1Cc1ccc(NC(=O)c2ccccc2-c2nnn[nH]2)cc1`, the negative logarithm of the IC50 (pIC50) was 7.00.

Regarding `CCCSc1nnc(Cc2ccccc2)n1Cc1ccc(NC(=O)c2ccccc2C(=O)O)cc1`, the pIC50 is 6.49.

For the compound `CCCCc1nnc(S(C)(=O)=O)n1Cc1ccc(NC(=O)c2ccccc2-c2nnn[nH]2)cc1`, the pIC50 is 6.40.

`CCCCc1nnc(SCC2CCCCC2)n1Cc1ccc(NC(=O)c2ccccc2-c2nnn[nH]2)cc1`: the pIC50 was 7.44.

In the case of `CCCCc1nnc(SCc2ccccc2Cl)n1Cc1ccc(NC(=O)c2ccccc2-c2nnn[nH]2)cc1`, the pIC50 is 6.96.

As to `CCCCc1nnc(SC)n1Cc1ccc(NC(=O)c2ccccc2-c2nnn[nH]2)cc1`, the pIC50 was 6.51.

As for `CCCCc1nnc(SCc2ccc([N+](=O)[O-])cc2)n1Cc1ccc(NC(=O)c2ccccc2-c2nnn[nH]2)cc1`, the pIC50 was 8.18.

`CCCc1nnc(SCc2ccc(Cl)cc2)n1Cc1ccc(NC(=O)c2ccccc2-c2nnn[nH]2)cc1` showed a negative logarithm of the IC50 (pIC50) of 7.01.

Regarding `CCCCc1nnc(SCc2ccccc2C(=O)O)n1Cc1ccc(NC(=O)c2ccccc2-c2nnn[nH]2)cc1`, the pIC50 is 8.82.

Take `CCCCc1nnc(OCCc2ccccc2)n1Cc1ccc(NC(=O)c2ccccc2-c2nnn[nH]2)cc1`: the pIC50 was 7.20.

As to `CCCCc1nnc(C(=O)N(C)c2ccccc2)n1Cc1ccc(NC(=O)c2ccccc2-c2nnn[nH]2)cc1`, the pIC50 was 6.46.

For the compound `CCCCc1nnc(SCCc2ccccc2)n1Cc1ccc(NC(=O)c2ccccc2-c2nnn[nH]2)cc1`, the pIC50 is 7.46.

For the compound `CCCCc1nnc([S+]([O-])Cc2ccc(OC)cc2)n1Cc1ccc(NC(=O)c2ccccc2-c2nn[nH]n2)cc1` (stereo unspecified), the pIC50 is 7.30.

Consider `CCCCc1nnc(SCc2ccccc2-c2nnn[nH]2)n1Cc1ccc(NC(=O)c2ccccc2-c2nnn[nH]2)cc1`, for which the pIC50 was 8.85.

`CCCCc1nnc(NCc2ccccc2)n1Cc1ccc(NC(=O)c2ccccc2-c2nnn[nH]2)cc1` gave a negative logarithm of the IC50 (pIC50) of 7.55.

On to `CCCCc1nnc(OCc2ccccc2)n1Cc1ccc(NC(=O)c2ccccc2-c2nnn[nH]2)cc1`, for which the pIC50 was 6.43.

On to `CCCCc1nnc(SCC(C)C)n1Cc1ccc(NC(=O)c2ccccc2-c2nnn[nH]2)cc1`, for which the negative logarithm of the IC50 (pIC50) is 7.14.

`CCCCc1nnc(C(=O)N(C)Cc2ccccc2)n1Cc1ccc(NC(=O)c2ccccc2-c2nnn[nH]2)cc1` had a pIC50 of 7.05.
